Results published in BindingDB's records for doi:10.1016/j.bmcl.2010.11.050 (The University of Tokushima Graduate School, 2010).

Target: Carbonic anhydrase 2 (Bos taurus, UniProt P00921)
Assay: Binding affinity to bovine carbonic anhydrase 2

Chain of Carbonic anhydrase 2 (P00921 whole entry): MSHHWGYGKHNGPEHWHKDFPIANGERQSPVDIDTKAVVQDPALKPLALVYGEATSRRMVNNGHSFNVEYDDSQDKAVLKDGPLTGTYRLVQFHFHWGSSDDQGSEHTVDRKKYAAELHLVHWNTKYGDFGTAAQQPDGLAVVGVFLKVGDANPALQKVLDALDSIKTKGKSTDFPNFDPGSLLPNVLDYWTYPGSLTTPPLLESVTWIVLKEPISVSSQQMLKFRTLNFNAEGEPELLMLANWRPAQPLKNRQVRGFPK

Row | SMILES | Ki [nM]
1 | NS(=O)(=O)c1ccc(Cl)c(Cl)c1 [3,4-Dichloro-Benzenesulfonamide] | 2.5
2 | NS(=O)(=O)c1cccc([N+](=O)[O-])c1 [3-Nitro-benzenesulfonamide] | 8.5
3 | NS(=O)(=O)c1cccc(Cl)c1 [3-Chloro-Benzenesulfonamide] | 16
4 | NS(=O)(=O)c1ccc([N+](=O)[O-])c(C(F)(F)F)c1 | 1.7
5 | CC(=O)c1ccc(S(N)(=O)=O)cc1 [4-Acetyl-Benzenesulfonamide] | 17
6 | N#Cc1ccc(S(N)(=O)=O)cc1 [4-Cyano-Benzenesulfonamide] | 7.1
7 | NS(=O)(=O)c1ccc(Cl)c([N+](=O)[O-])c1 [4-Chloro-3-nitro-benzenesulfonamide] | 2
8 | Cc1cccc(S(N)(=O)=O)c1 [3-Methylbenzenesulfonamide] | 132

Continued, values first:

Row | Ki [nM] | SMILES
9 | 14 | NS(=O)(=O)c1ccc(Br)cc1 [p-Halide-sulfanilamide derivative, 2a]
10 | 288 | CNc1ccc(S(N)(=O)=O)cc1 [4-Methylamino-benzenesulfonamide]
11 | 58 | Cc1ccc(S(N)(=O)=O)cc1
12 | 14 | NS(=O)(=O)c1ccc(Cl)cc1 [p-Halide-sulfanilamide derivative, 2]
13 | 102 | COc1ccc(S(N)(=O)=O)cc1 [4-Methoxy-Benzenesulfonamide]
